Assay results as given in the supplement of paper PMC10307832.

How the values were obtained:
Test in all cases: relative viability (nuclei count vs DMSO), 5 days (fraction); higher = more cells survive
NCI-H1915 = test system: NCI-H1915
Outline: (§1)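 A single step with final 0.05% Triton X-100, 1% formaldehyde and 1 ug/ml Hoechst fixed the cells and stained nuclei 5 days after treatment. Lung cancer cell lines in 1536-well plates had been treated by pin tool the day after seeding with one drug alone or a fixed anchor-drug dose plus five library-drug doses (not always all listed) in √10 steps, and nuclei were counted on 4× images. Relative viability is the ratio of nuclei in treated wells to nuclei in vehicle wells, taken as the median of duplicate plates.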

NCI-H1993 = test system: NCI-H1993
Outline: as §1

NCI-H2023 = test system: NCI-H2023
Outline: as §1

NCI-H2085 = test system: NCI-H2085
Outline: as §1

NCI-H2126 = test system: NCI-H2126
Outline: as §1

NCI-H2347 = test system: NCI-H2347
Outline: as §1

NCI-H650 = test system: NCI-H650
Outline: as §1

NCI-H838 = test system: NCI-H838
Outline: as §1

PC-14 = test system: PC-14
Outline: as §1

SW 1573 = test system: SW 1573
Outline: as §1

UMC-11 = test system: UMC-11
Outline: as §1

Work on `CC(=O)O[C@@]12CO[C@@H]1C[C@H](O)[C@@]1(C)C(=O)[C@H](O)C3=C(C)[C@@H](OC(=O)[C@H](O)[C@@H](NC(=O)OC(C)(C)C)c4ccccc4)C[C@@](O)([C@@H](OC(=O)c4ccccc4)[C@H]21)C3(C)C` [Docetaxel] + CC(=O)c1c(C)c2cnc(Nc3ccc(N4CCNCC4)cn3)nc2n(C2CCCC2)c1=O [Palbociclib] (partner 0.5 µM) yielded a relative viability (NCI-H1915; first compound 0.000632 µM) of 0.464, a relative viability (NCI-H1915; first compound 0.002 µM) of 0.219 and a relative viability (NCI-H1915; first compound 0.006325 µM) of 0.149. For the same compound, the relative viability (NCI-H1915; first compound 0.02 µM) was 0.102, the relative viability (NCI-H1993; first compound 0.0002 µM) was 0.799 and the relative viability (NCI-H1993; first compound 0.000632 µM) was 0.708. It also gave a relative viability (NCI-H1993; first compound 0.002 µM) of 0.686, a relative viability (NCI-H1993; first compound 0.006325 µM) of 0.538 and a relative viability (NCI-H1993; first compound 0.02 µM) of 0.307. It also gave a relative viability (NCI-H2023; first compound 0.0002 µM) of 0.357, a relative viability (NCI-H2023; first compound 0.000632 µM) of 0.339 and a relative viability (NCI-H2023; first compound 0.002 µM) of 0.101. The relative viability (NCI-H2023; first compound 0.006325 µM) was 0.0906, the relative viability (NCI-H2023; first compound 0.02 µM) was 0.0705 and the relative viability (NCI-H2085; first compound 0.0002 µM) was 0.463. It also gave a relative viability (NCI-H2085; first compound 0.000632 µM) of 0.551, a relative viability (NCI-H2085; first compound 0.002 µM) of 0.539 and a relative viability (NCI-H2085; first compound 0.006325 µM) of 0.48. For the same compound, the relative viability (NCI-H2085; first compound 0.02 µM) was 0.42, the relative viability (NCI-H2126; first compound 0.0002 µM) was 0.378 and the relative viability (NCI-H2126; first compound 0.000632 µM) was 0.356. For the same compound, the relative viability (NCI-H2126; first compound 0.002 µM) was 0.332, the relative viability (NCI-H2126; first compound 0.006325 µM) was 0.261 and the relative viability (NCI-H2347; first compound 0.0002 µM) was 0.375. It also gave a relative viability (NCI-H2347; first compound 0.000632 µM) of 0.429, a relative viability (NCI-H2347; first compound 0.002 µM) of 0.408 and a relative viability (NCI-H2347; first compound 0.006325 µM) of 0.373. For the same compound, the relative viability (NCI-H2347; first compound 0.02 µM) was 0.343, the relative viability (NCI-H650; first compound 0.0002 µM) was 0.34 and the relative viability (NCI-H650; first compound 0.000632 µM) was 0.305. The relative viability (NCI-H650; first compound 0.002 µM) was 0.222, the relative viability (NCI-H650; first compound 0.006325 µM) was 0.211 and the relative viability (NCI-H650; first compound 0.02 µM) was 0.193. The relative viability (NCI-H838; first compound 0.0002 µM) was 0.223, the relative viability (NCI-H838; first compound 0.000632 µM) was 0.251 and the relative viability (NCI-H838; first compound 0.002 µM) was 0.209. For the same compound, the relative viability (NCI-H838; first compound 0.006325 µM) was 0.176, the relative viability (NCI-H838; first compound 0.02 µM) was 0.133 and the relative viability (PC-14; first compound 0.0002 µM) was 0.466. The relative viability (PC-14; first compound 0.000632 µM) was 0.501, the relative viability (PC-14; first compound 0.002 µM) was 0.0828 and the relative viability (PC-14; first compound 0.006325 µM) was 0.0351. It also gave a relative viability (PC-14; first compound 0.02 µM) of 0.0299, a relative viability (SW 1573; first compound 0.0002 µM) of 0.316 and a relative viability (SW 1573; first compound 0.000632 µM) of 0.23. It also gave a relative viability (SW 1573; first compound 0.002 µM) of 0.155, a relative viability (SW 1573; first compound 0.006325 µM) of 0.196 and a relative viability (SW 1573; first compound 0.02 µM) of 0.0993. It also gave a relative viability (UMC-11; first compound 0.0002 µM) of 0.322, a relative viability (UMC-11; first compound 0.000632 µM) of 0.357 and a relative viability (UMC-11; first compound 0.002 µM) of 0.294. For the same compound, the relative viability (UMC-11; first compound 0.006325 µM) was 0.266 and the relative viability (UMC-11; first compound 0.02 µM) was 0.234.
